According to patent US11084829B2, “Ubiquitin-specific-processing protease 7 (USP7) modulators and uses thereof” (RAPT THERAPEUTICS, INC., priority 2018, dated 2021):

Experiments:
Assay type in all cases: cell-based
H526 cells [1] = test: Compound synergy (Bliss independence) in H526 cells
Experimental: CHP-134 was purchased from Sigma Aldrich, MOLM-13 was purchased from AddexBio, and NB-1 was purchased from Sekisui XenoTech. All other cell lines were purchased from American Type Culture Collection. For all cell lines, identity was confirmed by short tandem repeat profiling and culturing was performed in recommended growth medium. For studies evaluating cellular effects of compound treatment, 250 to 2,000 cells in 40 μl of recommended medium were seeded per well in 384-well plates (Corning 3764). DMSO-solubilized compounds were added in duplicate in a two-fold dilution series using a D300e Digital Dispenser (Hewlett-Packard). Following a 5-day incubation, cell viability was measured using CellTiter-Glo (Promega) following the manufacturer's instructions. Luminescence was measured using a CLARIOstar plate reader (BMG LABTECH) and normalized to that of DMSO-treated cells. IC50 values were determined by non-linear regression using a 4-parameter fit in Prism (GraphPad Software). Inhibitor profiling of the 430-cell line panel was conducted and analyzed similarly.
Cancer Cell Line Encyclopedia (CCLE) mutation data was downloaded from https://data.broadinstitute.org/ccleiCCLE_DepMap_18Q2_maf_20180502.txt.gz. Genes were considered mutated if they were annotated in CCLE as containing variants that were either a TCGA Hotspot, a COSMIC Hotspot, or a deleterious variant. Genes with at least 6 mutated cell lines out of the 397 cell lines that overlapped with the cell line screening panel were tested one gene at a time in linear models or coordinately in multivariate models where the fraction cell signal at 1 μM compound was the dependent variable. For compound synergy analysis, a Bliss-independence model was used. Briefly, the products of the fraction of maximal cell signal for each of the tested compounds alone were calculated as the expected signal in the absence of any compound interaction. The log2 of the ratio of expected:observed signal was calculated to indicate synergy (positive) or interference (negative) interactions. For in vivo studies, interval-censored survival analysis was performed using the icenReg package (reference: https://cran.r-project.org/web/packages/icenReg/citation.html), using the “ic_par” parametric regression model with proportional hazards and a Weibull distribution.
Tests were conducted to determine whether the USP7 inhibitor 3-((7-(5-chloro-3-methyl-2-(((R)-morpholin-2-yl)methyl)phenyl)thieno[3,2-b]pyridin-2-yl)methyl)-6,6-dimethyl-3-azabicyclo[3.1.0]hexane-2,4-dione potentiates the activity of DNA-damaging agents commonly used for small cell lung cancer chemotherapy, namely carboplatin, doxorubicin, and the PARP inhibitor olaparib.
The effect of combining the USP7 inhibitor 3-((7-(5-chloro-3-methyl-2-(((R)-morpholin-2-yl)methyl)phenyl)thieno[3,2-b]pyridin-2-yl)methyl)-6,6-dimethyl-3-azabicyclo[3.1.0]hexane-2,4-dione with the PIM kinase inhibitor AZD 1208, the PI3K inhibitor pictilisib and the PI3K inhibitor taselisib in the p53 mutant H526 cell line was tested. […] Both PIM and PI3K promote the activity of mammalian target of rapamycin (mTOR), which regulates cellular protein translation and controls phosphorylation of S6 at the Ser235/236 site.

H526 cells [2] = test: RNASeq transcriptomic profiling and gene set enrichment in H526 cells; settings: treatment for 24 or 48 hours
Experimental: RNA was extracted from approximately 1 million cells using the Allprep DNA/RNA Mini Kit (Qiagen). Whole transcriptome non-stranded libraries were prepared using the TruSeq RNA Library Prep Kit v2 (Illumina). Sequencing was performed on Illumina NovaSeq using paired-end mode, 200 cycles, targeting 40 million reads per sample, by MedGenome. Sequencing results were processed on the Seven Bridges Genomics platform through Kallisto Quant (version 0.43.1) aligning to the gencode.v27 transcript reference. Aligned reads were imported by tximport (version 1.10.1) and Treatment fold change and significance were calculated with DESeq2 (version 1.22.2) with an experimental design of “˜Time+Treatment+Time: Treatment” on genes with at least 10 counts. Shrunk log 2 fold changes (lfcShrink function, type=“apeglm”) were used for significance calculation.
In order to identify pathways impacted by USP7 inhibition, RNASeq was used to profile transcriptomic changes in H526 cells following treatment with the USP7 inhibitor 3-((7-(5-chloro-3-methyl-2-(((R)-morpholin-2-yl)methyl)phenyl)thieno[3,2-b]pyridin-2-yl)methyl)-6,6-dimethyl-3-azabicyclo[3.1.0]hexane-2,4-dione for 24 or 48 hours. […] Measurement of transcriptional changes prior to 72 hours should thus uncover programs triggered by USP7 inhibition without being confounded by apoptosis pathways themselves. […]

[3] = test system: phosphorylated S6 (Ser235/236); test: Phospho-S6 ELISA; settings: treatment with the compound alone
Experimental: (§1) For Western blotting, compound-treated cells were lysed in RIPA lysis buffer (ThermoScientific) containing Halt Protease and Phosphatase Inhibitor Cocktail (Life Technologies). Lysates were quantified using the BCA protein assay (Pierce) and equivalent protein was separated by SDS-PAGE (4-12%, ThermoScientific). Following electrophoresis, proteins were transferred to PVDF membranes. […] Caspase activation assays were performed on compound-treated cells using the Caspase-Glo 3/7 Assay Kit (Promega) according to the manufacturer's protocol, and luminescence was measured using a CLARIOstar plate reader (BMG LABTECH). […] Data were collected using FACSCanto (Becton Dickinson) and Attune (Thermo Fisher Scientific) flow cytometers and analyzed with FlowJo software (FlowJo LLC). […] Lysates were quantified using the BCA protein assay (Pierce) and equivalent protein was used in the PathScan Phospho-S6 Ribosomal Protein (Ser235/236) Sandwich ELISA Kit (Cell Signaling) according to the manufacturer's protocol. Absorbance was measured using the Spectramax 300 plate reader (Molecular Devices). […]

[4] = test system: phosphorylated histone H2AX (γ-H2AX); test: γ-H2AX measurement (flow cytometry)
Experimental: as §1

H526 cells [5] = test: Apoptosis (caspase-3/7 induction, sub-G1 population) in H526 cells; settings: starting 72 hours post treatment, data not shown
Experimental: as §1

Cc1cc(Cl)cc(-c2ccnc3cc(CN4C(=O)C5C(C4=O)C5(C)C)sc23)c1C[C@@H]1CNCCO1 (stereo partly drawn) [3-((7-(5-chloro-3-methyl-2-(((R)-morpholin-2-yl)methyl)phenyl)thieno[3,2-b]pyridin-2-yl)methyl)-6,6-dimethyl-3-azabicyclo[3.1.0]hexane-2,4-dione]
synergy with carboplatin (H526 cells [1]; combination with carboplatin): modest synergy | synergy with doxorubicin (H526 cells [1]; combination with doxorubicin): modest synergy | synergy with olaparib (H526 cells [1]; combination with the PARP inhibitor olaparib): modest synergy | synergy when dosed with itself (H526 cells [1]; compound dosed with itself (control)): no synergy was observed | synergy with pictilisib (H526 cells [1]; p53 mutant, combination with the PI3K inhibitor pictilisib): strongly synergized | synergy with taselisib (H526 cells [1]; p53 mutant, combination with the PI3K inhibitor taselisib): strongly synergized | synergy with AZD 1208 (H526 cells [1]; p53 mutant, combination with the PIM kinase inhibitor AZD 1208): strongly synergized | transcriptomic changes (RNASeq) (H526 cells [2]): upregulation of a large number of genes normally silenced by the polycomb repressive complex 2 (PRC2) | levels of phosphorylated S6 (Ser235/236) [3]: decreased levels of phosphorylated S6 (Ser235/236) | levels of phosphorylated histone H2AX (γ-H2AX) ([4]; USP7 inhibitor alone): did not increase levels of phosphorylated histone H2AX (γ-H2AX) | levels of γ-H2AX ([4]; combination of the USP7 inhibitor and carboplatin): increased γ-H2AX | apoptosis (caspase-3/7 induction, sub-G1 population) (H526 cells [5]): induced apoptosis in H526 cells in a dose-dependent manner
